Data as given in ChEMBL document CHEMBL1201862, “PubChem BioAssay data set” (2004).
The source made the active and inactive calls.

How the values were obtained:
[1] = target: Glyceraldehyde-3-phosphate dehydrogenase (Homo sapiens, UniProt P04406)
[2] = target: T1, Alkaline phosphatase, tissue-nonspecific isozyme (Homo sapiens, UniProt P05186); test: potency against alkaline phosphatase TNAP – biochemical, luminescent, dose response, SAR follow-up (AID 1056)
T1 sequence (P05186 whole entry): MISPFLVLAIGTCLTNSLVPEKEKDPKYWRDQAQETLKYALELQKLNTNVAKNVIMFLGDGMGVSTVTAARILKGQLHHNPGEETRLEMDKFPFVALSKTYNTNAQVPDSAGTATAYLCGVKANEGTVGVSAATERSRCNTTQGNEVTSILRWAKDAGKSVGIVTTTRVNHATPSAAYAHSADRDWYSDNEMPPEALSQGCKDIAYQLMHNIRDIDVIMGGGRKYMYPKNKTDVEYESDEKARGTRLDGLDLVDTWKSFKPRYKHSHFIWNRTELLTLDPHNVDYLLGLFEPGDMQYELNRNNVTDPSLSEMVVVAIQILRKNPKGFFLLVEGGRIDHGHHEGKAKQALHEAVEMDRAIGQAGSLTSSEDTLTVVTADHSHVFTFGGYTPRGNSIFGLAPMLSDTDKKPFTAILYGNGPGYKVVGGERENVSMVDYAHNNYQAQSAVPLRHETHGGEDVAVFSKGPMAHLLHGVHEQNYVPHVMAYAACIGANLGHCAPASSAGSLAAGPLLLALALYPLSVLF

Hexokinase HKDC1 = target: T2, Hexokinase HKDC1 (Homo sapiens, UniProt Q2TB90); test: inhibition of HKDC1 glucose phosphorylation – biochemical, W721R variant, dose response (AID 504729); format: functional
T2 sequence (Q2TB90 whole entry): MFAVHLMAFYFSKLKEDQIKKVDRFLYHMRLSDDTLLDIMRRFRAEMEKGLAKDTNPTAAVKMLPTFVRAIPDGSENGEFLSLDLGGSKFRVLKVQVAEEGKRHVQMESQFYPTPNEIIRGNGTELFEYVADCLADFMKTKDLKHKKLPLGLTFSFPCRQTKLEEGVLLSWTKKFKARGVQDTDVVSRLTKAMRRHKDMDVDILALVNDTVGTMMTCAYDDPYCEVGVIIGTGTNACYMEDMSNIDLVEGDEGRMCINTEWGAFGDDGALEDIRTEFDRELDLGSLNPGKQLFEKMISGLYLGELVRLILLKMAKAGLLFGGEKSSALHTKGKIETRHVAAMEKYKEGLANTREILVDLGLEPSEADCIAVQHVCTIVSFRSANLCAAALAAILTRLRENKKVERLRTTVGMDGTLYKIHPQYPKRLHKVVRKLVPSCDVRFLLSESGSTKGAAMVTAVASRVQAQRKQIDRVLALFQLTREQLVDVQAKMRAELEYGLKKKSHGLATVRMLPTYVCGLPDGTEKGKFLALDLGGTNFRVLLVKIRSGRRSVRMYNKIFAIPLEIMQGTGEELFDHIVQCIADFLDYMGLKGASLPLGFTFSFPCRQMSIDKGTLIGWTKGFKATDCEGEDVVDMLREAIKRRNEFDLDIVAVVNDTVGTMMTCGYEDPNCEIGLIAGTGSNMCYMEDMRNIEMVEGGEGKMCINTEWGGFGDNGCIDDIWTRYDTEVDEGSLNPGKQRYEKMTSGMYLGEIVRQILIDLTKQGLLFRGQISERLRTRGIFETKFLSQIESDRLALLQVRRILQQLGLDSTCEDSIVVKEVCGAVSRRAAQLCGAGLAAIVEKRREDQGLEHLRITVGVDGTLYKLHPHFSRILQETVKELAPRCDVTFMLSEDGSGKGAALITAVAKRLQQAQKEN

Coagulation factor XII = target: T3, Coagulation factor XII (Homo sapiens, UniProt P00748); format: functional;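 also: activated factor XIIa alpha cleaving a fluorogenic AMC peptide substrate; inhibitor potency from loss of enzyme activity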
T3 sequence (P00748 whole entry): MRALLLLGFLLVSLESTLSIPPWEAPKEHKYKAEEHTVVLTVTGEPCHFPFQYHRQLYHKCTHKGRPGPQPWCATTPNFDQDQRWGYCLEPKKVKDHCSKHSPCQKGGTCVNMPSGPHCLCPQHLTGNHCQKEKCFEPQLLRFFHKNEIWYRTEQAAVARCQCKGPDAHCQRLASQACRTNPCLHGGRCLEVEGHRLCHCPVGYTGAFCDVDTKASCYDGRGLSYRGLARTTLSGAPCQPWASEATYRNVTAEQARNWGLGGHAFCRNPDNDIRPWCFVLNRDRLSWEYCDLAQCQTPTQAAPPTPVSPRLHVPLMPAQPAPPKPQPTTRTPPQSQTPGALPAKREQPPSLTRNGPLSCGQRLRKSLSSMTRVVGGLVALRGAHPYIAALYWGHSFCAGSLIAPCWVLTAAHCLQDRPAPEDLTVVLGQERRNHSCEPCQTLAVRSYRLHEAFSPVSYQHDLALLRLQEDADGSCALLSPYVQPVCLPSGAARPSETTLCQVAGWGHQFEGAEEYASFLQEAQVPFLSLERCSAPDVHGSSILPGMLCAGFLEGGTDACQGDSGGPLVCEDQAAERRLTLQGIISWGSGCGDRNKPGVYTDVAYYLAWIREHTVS

Nonstructural protein 1 = Nonstructural protein 1 (Influenza A virus, UniProt Q194T2); format: functional, Influenza A virus (A/California/07/2009(H1N1))
[3] = target: T4, Calpain-2 catalytic subunit (Sus scrofa, UniProt P43367); test: m-calpain protease blockers, concentration series – biochemical, fluorogenic peptide substrate, dose response (AID 1420); format: functional
T4 sequence (P43367 whole entry): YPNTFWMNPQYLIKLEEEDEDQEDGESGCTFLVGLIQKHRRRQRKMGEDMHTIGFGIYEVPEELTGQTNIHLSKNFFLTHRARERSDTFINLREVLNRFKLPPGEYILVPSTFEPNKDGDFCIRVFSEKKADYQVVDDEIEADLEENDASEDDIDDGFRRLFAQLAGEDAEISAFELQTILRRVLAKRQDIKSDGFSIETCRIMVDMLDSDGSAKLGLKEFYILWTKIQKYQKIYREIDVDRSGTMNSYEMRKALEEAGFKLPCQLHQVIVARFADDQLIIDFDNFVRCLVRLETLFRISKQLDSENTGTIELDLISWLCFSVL

Cytochrome P450 2D6 = Cytochrome P450 2D6 (Homo sapiens, UniProt P10635);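 also: CYP2D6 member of a cytochrome P450 panel assay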
[4] = THP-1 cell cytotoxicity, dose response, cytotoxicity control for non-replicating M. tuberculosis project (AID 489025); format: functional
[5] = target: FAD-linked sulfhydryl oxidase ALR (Homo sapiens, UniProt P55789); test: ALR-catalysed DTT oxidation blockers – biochemical, H2O2 detection, luminescence, cherry-pick, dose response (AID 493248)
cells [6] = format: functional
[7] = viability of uninfected HEp-2 cells – cell-based, HTS, cytotoxicity control for RSV inhibitor project, dose response (AID 2410); format: functional; details: human respiratory syncytial virus
[8] = target: Voltage-dependent T-type calcium channel subunit alpha-1H (Homo sapiens, UniProt O95180); format: functional;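 also: channel activity triggered by adding a high calcium stimulation buffer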
cells [9] = test: cells
[10] = tested on: Streptococcus sp. 'group A'; test: Streptococcus pyogenes SK(-)GAS viability under kanamycin – luminescence, BacTiterGlo, confirmation, counter-screen for streptokinase expression inhibitor project, dose response (AID 1900); format: functional, organism-based
Streptokinase A = target: T5, Streptokinase A (Streptococcus pyogenes serotype M1, UniProt P10520); test: viability-normalized secreted streptokinase activity reduction – plasminogen activation absorbance, OD405, dose response (AID 1914); format: functional, Streptococcus pyogenes M1 GAS;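 also: secreted streptokinase activity via plasminogen activation per viability signal from cell pellet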
T5 sequence (P10520 whole entry): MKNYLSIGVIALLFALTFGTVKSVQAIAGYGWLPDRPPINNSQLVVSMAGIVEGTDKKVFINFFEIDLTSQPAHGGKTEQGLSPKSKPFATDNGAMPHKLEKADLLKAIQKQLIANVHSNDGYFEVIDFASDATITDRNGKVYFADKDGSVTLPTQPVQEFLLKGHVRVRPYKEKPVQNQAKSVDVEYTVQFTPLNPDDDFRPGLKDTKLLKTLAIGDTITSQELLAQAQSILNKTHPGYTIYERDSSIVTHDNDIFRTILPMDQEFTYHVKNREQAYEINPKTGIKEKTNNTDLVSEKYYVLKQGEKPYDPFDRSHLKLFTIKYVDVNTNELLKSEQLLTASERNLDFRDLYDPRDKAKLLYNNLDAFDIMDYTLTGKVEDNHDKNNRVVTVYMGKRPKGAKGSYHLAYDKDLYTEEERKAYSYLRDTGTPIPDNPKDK

Streptococcus = test: GAS UMAA2166 growth inhibition – luminescence, BacTiterGlo, counter-screen for streptokinase expression inhibitor project, dose response (AID 1915); format: functional, organism-based;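 also: potency for reduction of bacterial viability or growth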
Bcl-2-related protein A1 = target: T6, Bcl-2-related protein A1 (Mus musculus, UniProt Q07440); format: functional;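 also: confirmatory dose–response counterscreen on Bfl-1, used to check hits from a UBC13 polyubiquitin inhibitor campaign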
T6 sequence (Q07440 whole entry): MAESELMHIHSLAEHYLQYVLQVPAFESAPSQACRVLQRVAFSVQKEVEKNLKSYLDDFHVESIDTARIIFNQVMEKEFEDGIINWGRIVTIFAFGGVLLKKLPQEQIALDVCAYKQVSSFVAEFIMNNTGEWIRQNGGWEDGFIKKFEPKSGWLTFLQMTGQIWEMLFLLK

[11] = target: T7, Ubiquitin-conjugating enzyme E2 N (Homo sapiens, UniProt P61088); format: functional
T7 sequence (P61088 whole entry): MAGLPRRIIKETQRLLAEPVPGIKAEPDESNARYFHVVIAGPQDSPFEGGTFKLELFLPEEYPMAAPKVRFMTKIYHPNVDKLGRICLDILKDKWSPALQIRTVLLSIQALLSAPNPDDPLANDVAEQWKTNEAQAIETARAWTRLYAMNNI

[12] = target: T7, Ubiquitin-conjugating enzyme E2 N; format: functional; remark: listed apart in the source
cells [13] = format: functional, cell-based
cells [14] = format: functional, cell-based; remark: listed apart in the source
Cytochrome P450 2C9 = Cytochrome P450 2C9 (Homo sapiens, UniProt P11712)
Chain of Cytochrome P450 2C9 (P11712 whole entry): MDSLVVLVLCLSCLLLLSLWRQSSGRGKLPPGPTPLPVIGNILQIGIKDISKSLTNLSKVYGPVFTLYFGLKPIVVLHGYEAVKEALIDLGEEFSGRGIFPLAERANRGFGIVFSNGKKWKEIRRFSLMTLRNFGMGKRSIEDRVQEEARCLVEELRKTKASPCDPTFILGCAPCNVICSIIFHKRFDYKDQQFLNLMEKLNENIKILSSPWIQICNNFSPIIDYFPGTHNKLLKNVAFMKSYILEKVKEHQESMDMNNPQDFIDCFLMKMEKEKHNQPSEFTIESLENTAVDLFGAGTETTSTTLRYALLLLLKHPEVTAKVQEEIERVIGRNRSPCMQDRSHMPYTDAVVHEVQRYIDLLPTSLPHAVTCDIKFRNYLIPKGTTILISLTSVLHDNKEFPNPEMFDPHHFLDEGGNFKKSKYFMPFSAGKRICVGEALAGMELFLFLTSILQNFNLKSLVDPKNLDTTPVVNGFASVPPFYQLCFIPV

Chain of Glyceraldehyde-3-phosphate dehydrogenase (P04406 whole entry): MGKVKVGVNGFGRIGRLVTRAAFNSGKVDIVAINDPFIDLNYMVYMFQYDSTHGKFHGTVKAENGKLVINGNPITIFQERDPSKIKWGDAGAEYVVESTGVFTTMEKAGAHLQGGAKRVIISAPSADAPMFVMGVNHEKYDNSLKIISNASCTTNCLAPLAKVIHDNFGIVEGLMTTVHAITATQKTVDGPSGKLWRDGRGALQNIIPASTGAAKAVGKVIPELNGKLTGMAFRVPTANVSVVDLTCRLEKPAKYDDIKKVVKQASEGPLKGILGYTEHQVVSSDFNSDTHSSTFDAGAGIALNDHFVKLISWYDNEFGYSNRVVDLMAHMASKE
Chain of Nonstructural protein 1 (Q194T2 whole entry): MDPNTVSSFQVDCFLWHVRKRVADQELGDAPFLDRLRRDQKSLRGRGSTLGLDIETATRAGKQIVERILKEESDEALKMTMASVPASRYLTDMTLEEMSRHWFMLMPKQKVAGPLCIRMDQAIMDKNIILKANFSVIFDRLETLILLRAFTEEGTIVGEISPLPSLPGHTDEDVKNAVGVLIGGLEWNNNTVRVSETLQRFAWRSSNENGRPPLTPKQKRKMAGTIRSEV
Chain of Voltage-dependent T-type calcium channel subunit alpha-1H (O95180 whole entry): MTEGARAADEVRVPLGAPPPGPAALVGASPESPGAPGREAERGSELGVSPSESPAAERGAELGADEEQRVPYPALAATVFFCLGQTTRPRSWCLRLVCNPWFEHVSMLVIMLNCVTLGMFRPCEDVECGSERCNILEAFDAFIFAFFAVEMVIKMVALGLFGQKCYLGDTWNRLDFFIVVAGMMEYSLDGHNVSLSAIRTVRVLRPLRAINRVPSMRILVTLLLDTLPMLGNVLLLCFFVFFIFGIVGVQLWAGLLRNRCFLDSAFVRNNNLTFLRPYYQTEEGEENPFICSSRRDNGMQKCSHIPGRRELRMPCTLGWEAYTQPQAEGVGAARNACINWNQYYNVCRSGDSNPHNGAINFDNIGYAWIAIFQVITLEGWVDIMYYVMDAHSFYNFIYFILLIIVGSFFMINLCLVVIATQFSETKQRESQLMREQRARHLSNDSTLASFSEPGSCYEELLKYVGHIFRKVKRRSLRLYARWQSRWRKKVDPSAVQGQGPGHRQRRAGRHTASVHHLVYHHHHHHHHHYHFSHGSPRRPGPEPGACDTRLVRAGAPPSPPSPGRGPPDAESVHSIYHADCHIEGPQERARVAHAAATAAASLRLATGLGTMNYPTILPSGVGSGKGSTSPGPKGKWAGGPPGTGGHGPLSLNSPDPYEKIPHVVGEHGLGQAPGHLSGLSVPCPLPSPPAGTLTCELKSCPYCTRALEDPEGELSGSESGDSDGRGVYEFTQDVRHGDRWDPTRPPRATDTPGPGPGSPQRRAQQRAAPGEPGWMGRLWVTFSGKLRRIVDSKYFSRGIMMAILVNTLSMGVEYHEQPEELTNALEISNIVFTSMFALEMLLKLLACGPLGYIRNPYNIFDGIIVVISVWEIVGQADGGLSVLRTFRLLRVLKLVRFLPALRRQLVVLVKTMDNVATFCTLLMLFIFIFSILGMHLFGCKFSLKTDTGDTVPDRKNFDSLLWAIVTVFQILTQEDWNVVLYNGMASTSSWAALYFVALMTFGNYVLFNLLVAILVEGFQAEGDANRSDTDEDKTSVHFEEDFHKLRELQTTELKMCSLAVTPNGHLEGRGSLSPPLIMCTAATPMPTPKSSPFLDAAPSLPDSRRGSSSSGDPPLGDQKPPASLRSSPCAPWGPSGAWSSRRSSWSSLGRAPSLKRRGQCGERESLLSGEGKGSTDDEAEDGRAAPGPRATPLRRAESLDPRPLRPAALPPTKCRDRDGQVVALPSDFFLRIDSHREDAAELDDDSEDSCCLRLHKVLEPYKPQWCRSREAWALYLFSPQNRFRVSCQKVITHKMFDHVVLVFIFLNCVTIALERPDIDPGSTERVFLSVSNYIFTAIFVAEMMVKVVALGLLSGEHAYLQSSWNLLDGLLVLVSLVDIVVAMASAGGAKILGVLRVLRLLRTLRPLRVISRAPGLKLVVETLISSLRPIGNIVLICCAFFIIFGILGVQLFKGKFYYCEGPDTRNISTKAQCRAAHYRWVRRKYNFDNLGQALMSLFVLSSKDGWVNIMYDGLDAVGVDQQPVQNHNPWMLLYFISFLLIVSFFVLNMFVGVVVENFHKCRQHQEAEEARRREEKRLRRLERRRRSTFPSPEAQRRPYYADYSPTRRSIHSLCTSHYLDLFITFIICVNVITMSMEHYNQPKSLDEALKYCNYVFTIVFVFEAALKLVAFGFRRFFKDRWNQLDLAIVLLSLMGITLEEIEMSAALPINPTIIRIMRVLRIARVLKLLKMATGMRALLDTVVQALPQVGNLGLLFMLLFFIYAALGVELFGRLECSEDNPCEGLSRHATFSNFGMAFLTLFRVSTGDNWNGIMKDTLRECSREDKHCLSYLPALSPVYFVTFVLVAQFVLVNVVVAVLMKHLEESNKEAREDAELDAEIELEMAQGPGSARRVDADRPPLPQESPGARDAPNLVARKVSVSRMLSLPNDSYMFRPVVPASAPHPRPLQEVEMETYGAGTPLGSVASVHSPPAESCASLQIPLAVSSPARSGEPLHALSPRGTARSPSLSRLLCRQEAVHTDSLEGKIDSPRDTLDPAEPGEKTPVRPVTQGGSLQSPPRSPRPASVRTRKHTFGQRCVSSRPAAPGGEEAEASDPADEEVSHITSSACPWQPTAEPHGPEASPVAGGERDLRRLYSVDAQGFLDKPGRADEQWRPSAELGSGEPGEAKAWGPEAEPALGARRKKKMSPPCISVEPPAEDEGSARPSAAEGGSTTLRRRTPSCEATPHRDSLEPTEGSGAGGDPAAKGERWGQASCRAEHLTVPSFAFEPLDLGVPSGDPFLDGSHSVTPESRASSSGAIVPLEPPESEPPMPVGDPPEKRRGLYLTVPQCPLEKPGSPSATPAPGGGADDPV
Chain of FAD-linked sulfhydryl oxidase ALR (P55789 whole entry): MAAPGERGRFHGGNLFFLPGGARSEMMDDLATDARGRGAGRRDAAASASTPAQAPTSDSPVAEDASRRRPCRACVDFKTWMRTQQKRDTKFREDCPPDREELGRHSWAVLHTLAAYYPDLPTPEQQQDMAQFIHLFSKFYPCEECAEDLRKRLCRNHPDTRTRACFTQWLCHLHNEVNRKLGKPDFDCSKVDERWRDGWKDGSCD
Chain of Cytochrome P450 2D6 (P10635 whole entry): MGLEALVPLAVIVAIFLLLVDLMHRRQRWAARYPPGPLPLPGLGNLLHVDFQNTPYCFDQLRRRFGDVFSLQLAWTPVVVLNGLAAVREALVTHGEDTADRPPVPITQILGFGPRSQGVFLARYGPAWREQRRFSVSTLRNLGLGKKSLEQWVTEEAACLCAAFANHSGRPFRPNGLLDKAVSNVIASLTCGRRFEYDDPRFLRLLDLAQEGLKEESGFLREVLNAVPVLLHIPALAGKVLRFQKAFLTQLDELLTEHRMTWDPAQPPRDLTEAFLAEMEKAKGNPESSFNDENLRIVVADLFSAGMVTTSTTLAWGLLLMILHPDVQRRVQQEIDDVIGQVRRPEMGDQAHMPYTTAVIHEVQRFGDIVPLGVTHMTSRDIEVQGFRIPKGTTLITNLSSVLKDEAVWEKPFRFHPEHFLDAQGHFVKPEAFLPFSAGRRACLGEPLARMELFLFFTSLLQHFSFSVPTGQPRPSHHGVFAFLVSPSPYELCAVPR

SMILES: c1cncc(-c2cncnc2)c1
- IC50 [1]: > 100 µM (not active)
- IC50 [2]: > 100 µM (inactive)

SMILES: O=C(CSc1nnc(CCCN2C(=O)c3cccc4cccc(c34)C2=O)n1-c1ccccc1)N1CCCCC1
- IC50 (Hexokinase HKDC1): 11.4 µM (active)

SMILES: N#C/C(=N\Nc1ccccc1)C(N)=S
- IC50 (Coagulation factor XII): > 50 µM (inactive)

SMILES: COc1ccc(NC(=O)CSc2n[nH]c(-c3ccccn3)n2)cc1
- IC50 (Nonstructural protein 1): 4.25 µM (active)

SMILES: CCc1nc2c(c(=O)c3ccccc3n2C)c(=O)n1-c1ccc(F)cc1
- IC50 (Hexokinase HKDC1): 7.9 µM (active)

SMILES: O=C(CN(Cc1cccs1)C(=O)CCC(=O)Nc1nccs1)NCc1ccccc1
- IC50 (Coagulation factor XII): > 50 µM (inactive)

SMILES: O=S(=O)(Nc1cccnc1)c1cc(Cl)cc(Cl)c1O
- IC50 [1]: > 100 µM (not active)
- IC50 [2]: > 100 µM (inactive)

SMILES: O=C(Cc1ccccc1)NC(NC(=S)Nc1cc(Cl)ccc1Cl)C(Cl)(Cl)Cl (configuration not stated)
- IC50 [3]: > 50 µM (not active)
- IC50 (Coagulation factor XII): > 50 µM (inactive)
- AC50 (Cytochrome P450 2D6): 3.16 µM (inconclusive)

SMILES: Cc1ccc(-c2nc3ccccn3c2Nc2ccccc2)o1
- CC50 [4]: > 40 µM (active)
- AC50 [5]: 0.235 µM (active)
- IC50 (cells [6]): 19.7 µM (active)

SMILES: COc1cccc(C(=O)N(Cc2nc(-c3cccc(C)c3)no2)C(C)C)c1OC
- CC50 [7]: 30.6 µM (active)
- EC50 [8]: 12.7 µM (active)
- IC50 (cells [9]): 4.69 µM (active)

SMILES: CC1CC(C)(C)n2c(O)c(/N=N/C(=N)S)c3cccc1c32 (configuration not stated)
- EC50 [10]: 9.25 µM (active)
- EC50 (Streptokinase A): > 150 µM (not active)
- EC50 (Streptococcus): > 150 µM (not active)
- IC50 (Bcl-2-related protein A1): > 20 µM (inactive)
- IC50 [11]: 6.33 µM (active)
- IC50 [12]: 4.95 µM (active)

SMILES: O=C(O)c1ccc(/N=C/c2c(O)ccc3ccccc23)cc1
- IC50 (Hexokinase HKDC1): 38.1 µM (inactive)

SMILES: Cc1ccc(NC(=O)CSCC(N)=O)cc1C
- IC50 (Coagulation factor XII): > 50 µM (inactive)

SMILES: COc1ccc(C(=O)N/N=C/c2cccc3cccnc23)cc1
- EC50 (cells [13]): 15.5 µM (active)
- EC50 (cells [14]): > 350 µM (not active)
- CC50 [4]: 14.7 µM (active)
- IC50 (Nonstructural protein 1): 5.8 µM (active)
- IC50 (cells [6]): 3.44 µM (active)
- AC50 (Cytochrome P450 2C9): inconclusive
